Each structure is given as a SMILES string. Where only a bound is given, the exact number is not on record here.

Results on nine molecules are retold here after US7902354B2, “Lapachone compounds and methods of use thereof” (ArQule, Inc., priority 2006, dated 2011).

The subject of data set [1] is A549 human lung carcinoma cells. In words: MTS cell viability assay, A549 human lung carcinoma cells. Format: cell-based. The note with it: A549, 4 h compound incubation, MTS, read-out: IC50 Values, Cancerous Cells, Lung A549. On the technique in general: Tetrazolium assays rely on reduction of a dye to a coloured formazan, in cell work by metabolically active cells.
For data set [2], the system named is DLD-1 human colon carcinoma cells. In words: MTS cell viability assay, DLD-1 human colon carcinoma cells. Format: cell-based. Particulars: DLD-1, 4 h compound incubation, MTS, read-out: IC50 Values, Cancerous Cells, Colon DLD-1.
The test system of data set [3] is DU-145 human prostate carcinoma cells. In words: MTS cell viability assay, DU-145 human prostate carcinoma cells. The data set is classed as cell-based. Particulars: DU-145, 4 h compound incubation, MTS, read-out: IC50 Values, Cancerous Cells, Prostate DU-145.
Data set [4] has as its system K-562 human leukemia cells. In words: MTS cell viability assay, K-562 human leukemia cells. Format: cell-based. Particulars: K562, K-562, 4 h compound incubation, MTS, read-out: IC50 Values, Cancerous Cells, Leukemia K-562.
Data set [5] deals with HT-29 human colon carcinoma cells. Description: MTS cell viability assay, HT-29 human colon carcinoma cells. The data set is classed as cell-based. The note with it: 4 h compound incubation, read-out: IC50 Values, Cancerous Cells, Colon HT-29.
Data set [6] deals with PACA-2 human pancreatic carcinoma cells. Description: MTS cell viability assay, PACA-2 human pancreatic carcinoma cells. Format: cell-based. Particulars: PACA-2, 4 h compound incubation, MTS, read-out: IC50 Values, Cancerous Cells, Pancreas PACA-2.
In data set [7] the test system is NCM-460 normal colon epithelial cells. Description: MTS cell viability assay, NCM-460 normal colon epithelial cells. The data set is classed as cell-based. The note with it: for IC50: Homo sapiens, NCM460, NCM-460, 4 h compound incubation, MTS, read-out: IC50 Values, Normal Cells, Colon NCM-460; for Fold Selectivity (NCM-460/DLD1): ratio of IC50 NCM-460 / DLD1.
Another data set has as its system E2F-1. In words: E2F-1 induction in HT-29 cells. The data set is classed as cell-based, human. From the text:
Another effect of the compounds of the present invention is the induction or elevation of activity (e.g. elevation of the level) of one or more checkpoint molecules (i.e., a member of the E2F family of transcription factors). Studies have shown that β-lapachone induces activation of E2F1 checkpoint pathway in nuclei of cancer cells but not in normal cells, resulting in the arrest of cancer cells in G1 and/or S phase. Several compounds of the present invention were effective in activating the E2F1 checkpoint pathway (e.g. elevation of E2F1 levels), thus causing G1 and/or S phase arrest. Furthermore, the compounds of the present invention have no significant toxic effects on normal cells (See. Table 1). The assays of the present invention as shown in Table 1 and methods of measuring induction of E2F1 activity and elevation of E2F1 levels can be carried out following the descriptions found in Li et al., (2003) Proc Natl Acad Sci USA. 100(5): 2674-8 and U.S. Patent Application Publication No. 2002/0169135, both incorporated herein by reference.

Data set [8] has as its system HT29 human colon cancer xenograft. In words: Colon cancer xenograft model (HT29) in athymic nude mice. Format: in vivo. On the procedure:
Tumors were allowed to grow to approximately 70 mm^3 in size. Animals were randomized into two groups of eight animals per group. […] Drug or vehicle was administered every Monday, Wednesday and Friday for a total of nine doses (qMWFx3). Tumor size was evaluated periodically during the study. For each subject, tumor volume was calculated using the formula (L×W^2)/2 where L and W were the length and width of the tumor, respectively. The arithmetic mean tumor volume was calculated for each treatment group +/− standard error of the mean (SEM). […] Tumors were allowed to grow to approximately 90 mm^3 in size. Animals were randomized into three groups of eight animals per group. […] Drug or vehicle was administered every Monday, Wednesday and Friday for a total of nine doses (qMWFx3). Tumor size was evaluated periodically during the study. For each subject, tumor volume was calculated using the formula (L×W^2)/2 where L and W were the length and width of the tumor, respectively. The arithmetic mean tumor volume was calculated for each treatment group +/− standard error of the mean (SEM). […] Tumors were allowed to grow to approximately 60 mm^3 in size. Animals were randomized into two groups of eight animals per group. At day five post injection, mice with established tumors were treated intraperitoneally with either Compound 182 (40 mg/kg) or vehicle control. Drug or vehicle was administered every Monday, Wednesday and Friday for a total of nine doses (qMWFx3). Tumor size was evaluated periodically during the study. For each subject, tumor volume was calculated using the formula (L×W^2)/2 where L and W were the length and width of the tumor, respectively. The arithmetic mean tumor volume was calculated for each treatment group +/− standard error of the mean (SEM). […] Tumors were allowed to grow to approximately 50 mm^3 in size. Animals were randomized into three groups of five animals per group. At day eight post injection, mice with established tumors were treated intraperitoneally with either Compound 180 (40 mg/kg) or Compound 125 (40 mg/kg) and vehicle control. Drug or vehicle was administered every Monday, Wednesday and Friday for a total of twelve doses (qMWFx4). Tumor size was evaluated periodically during the study. For each subject, tumor volume was calculated using the formula (L×W^2)/2 where L and W were the length and width of the tumor, respectively. The arithmetic mean tumor volume was calculated for each treatment group +/−standard error of the mean (SEM).

A further data set has as its system human cancer cell lines. The note with it: single agent; read-out: antineoplastic activity against human cancer cell lines (IC50); cited from earlier work.
The subject of data set [9] is normal fresh or proliferating human PBMC. Particulars: cited from earlier work.
Where [10] appears, read: 48 mg/kg intraperitoneally qMWFx3, HT29 xenograft.
[11] abbreviates: 40 mg/kg intraperitoneally qMWFx4, HT29 xenograft.
The mark [12] stands for this setting: 40 mg/kg intraperitoneally qMWFx3, HT29 xenograft.
Setting [13] is: 32 mg/kg intraperitoneally qMWFx3, HT29 xenograft.

Take `O=C1C(=O)c2ccccc2C2=C1SCC1(CCN(C[C@@H](O)Cc3ccccc3)CC1)O2` [Compound 187, 1′-[(2S)-2-hydroxy-3-phenylpropyl]spiro[naphtho[1,2-b][1,4]oxathiine-2,4′-piperidine]-5,6-dione]: the IC50 came out at 5.1 µM in data set [1]; 2.1 µM in [2]; 3 µM in data set [3]; 2.7 µM in data set [4]; 5.5 µM in [5]; 1.9 µM in data set [6]. In addition, in [7], the IC50 amounted to 8.1 µM. Moreover, the “E2F-1 Induction (HT-29)” value in the data set with E2F-1 was “YES”. The “Opt. % T/C” value in data set [8] (setting [10]) worked out at 38%. For the same molecule, in data set [8] (setting [10]), the “reduction of mean tumor volume compared to vehicle treated control” value (from here on “reduction of mean tumor volume”) worked out at 62%.
For `O=C1C(=O)c2ccccc2C2=C1SCC1(CCN(Cc3ccc(F)cc3)CC1)O2` [Compound 125, 1′-(4-fluorobenzyl)spiro[naphtho[1,2-b][1,4]oxathiine-2,4′-piperidine]-5,6-dione], the IC50 in data set [1] was 9.57 µM; in data set [2], 1.71 µM; in data set [3] it was 5.06 µM; in data set [4], 3.74 µM; in data set [5] it was 4.95 µM; in data set [6], 2.5 µM. The IC50 in [7] amounted to 9.75 µM. Besides, in data set [7], the “Fold Selectivity (NCM-460/DLD1)” value came out at 5.7. The “E2F-1 Induction (HT-29)” value with E2F-1 is “Yes”. For the same molecule, the “% T/C” value in data set [8] (setting [11]) amounted to 46.2%. Moreover, the “reduction of mean tumor volume” value in [8] (setting [11]) stood at 57.8%.
Consider `O=C1C(=O)c2ccccc2C2=C1SCC1(CCN(C[C@H](O)COc3ccc(Cl)cc3)CC1)O2` [Compound 182, 1′-[(2S)-3-(4-chlorophenoxy)-2-hydroxypropyl]spiro[naphtho[1,2-b][1,4]oxathiine-2,4′-piperidine]-5,6-dione], for which the IC50 stood at 6.45 µM in [1]; 1.3 µM in [2]; 1.28 µM in [3]; 3.25 µM in data set [4]; 2.07 µM in [5]; 1.33 µM in [6]. In [7], the IC50 was determined as 11.2 µM. Further, the “Fold Selectivity (NCM-460/DLD1)” value in [7] stood at 8.6. Moreover, in the data set with E2F-1, the “E2F-1 Induction (HT-29)” value is listed as “Yes”. Besides, the “% T/C” value in data set [8] (setting [12]) stood at 44.8%. Moreover, the “reduction of mean tumor volume” value in data set [8] (setting [12]) is given as 55.2%.
With `O=C1C(=O)c2ccccc2C2=C1SCC1(CCN(C[C@H](O)COc3ccc(F)cc3)CC1)O2` [Compound 180, 1′-[(2S)-3-(4-fluorophenoxy)-2-hydroxypropyl]spiro[naphtho[1,2-b][1,4]oxathiine-2,4′-piperidine]-5,6-dione], the IC50 in data set [1] was 3.53 µM; in data set [2], 0.708 µM; in data set [3], 1.48 µM; in data set [4] it was 1.46 µM; in data set [5] it was 2.2 µM; in [6], 0.958 µM. Moreover, in data set [7], the IC50 turned out to be 3.57 µM. Besides, the “Fold Selectivity (NCM-460/DLD1)” value in data set [7] is given as 5.0. For the same molecule, the “E2F-1 Induction (HT-29)” value in the data set with E2F-1 is “Yes”. The “% T/C” value in [8] (setting [11]) was found to be 58.3%. Further, the “reduction of mean tumor volume” value in data set [8] (setting [11]) stood at 41.7%.
For `CC1(C)CCC2=C(O1)c1ccccc1C(=O)C2=O` [β-lapachone, 3,4-dihydro-2,2-dimethyl-2H-naphtho[1,2-b]pyran-5,6-dione], the IC50 in the data set on human cancer cell lines was 1 to 10 µM. For the same molecule, the “cytotoxic effects on normal fresh or proliferating human PBMC” value in data set [9] is listed as “No cytotoxic effects”.
On to `O=C1C(=O)c2ccccc2C2=C1SCC1(CCN(CC(O)Cc3ccccc3)CC1)O2` (stereo not shown) [Compound 163, 1′-(2-hydroxy-3-phenylpropyl)spiro[naphtho[1,2-b][1,4]oxathiine-2,4′-piperidine]-5,6-dione], for which the IC50 in data set [1] was 4.31 µM; in data set [2], 0.714 µM; in data set [3] it was 1.38 µM; in data set [4], 1 µM; in [5] it was 4.48 µM; in [6], 0.764 µM. Further, the IC50 in data set [7] is 2.84 µM. Further, in data set [7], the “Fold Selectivity (NCM-460/DLD1)” value turned out to be 4.0. Also, the “E2F-1 Induction (HT-29)” value in the data set with E2F-1 is on record as “Yes”.
As to `CC(C)(C)c1ccc(OC[C@@H](O)CN2CCC3(CC2)CSC2=C(O3)c3ccccc3C(=O)C2=O)cc1` [Compound 184, 1′-[(2S)-3-(4-tert-butylphenoxy)-2-hydroxypropyl]spiro[naphtho[1,2-b][1,4]oxathiine-2,4′-piperidine]-5,6-dione], the IC50 in data set [1] turned out to be 5.85 µM; in data set [2], 2.58 µM; in [3], 1.65 µM; in data set [4] it was 5.34 µM; in data set [5], 3.67 µM; in data set [6], 1.71 µM. Moreover, the IC50 in [7] is 27.8 µM. Besides, the “Fold Selectivity (NCM-460/DLD1)” value in [7] is listed as 10.8. Besides, the “E2F-1 Induction (HT-29)” value in the data set with E2F-1 is “Yes”. Also, the “% T/C” value in data set [8] (setting [13]) was determined as 29.8%. Moreover, the “reduction of mean tumor volume” value in data set [8] (setting [13]) stood at 70.2%.
Regarding `O=C1C(=O)c2ccccc2C2=C1SCC1(CCN(C[C@H](O)Cc3ccccc3)CC1)O2` [Compound 186, 1′-[(2R)-2-hydroxy-3-phenylpropyl]spiro[naphtho[1,2-b][1,4]oxathiine-2,4′-piperidine]-5,6-dione], the IC50 amounted to 5.5 µM in [1]; 1.5 µM in data set [2]; 2.1 µM in data set [3]; 2.3 µM in [4]; 6.5 µM in data set [5]; 1.5 µM in data set [6]. The concentration for half-maximal inhibition (IC50) in data set [7] was 6.8 µM. Moreover, in data set [7], the “Fold Selectivity (NCM-460/DLD1)” value is listed as 4.7. For the same molecule, the “E2F-1 Induction (HT-29)” value in the data set with E2F-1 is listed as “YES”. The “% T/C” value in data set [8] (setting [13]) worked out at 50%. Also, the “reduction of mean tumor volume” value in [8] (setting [13]) was 50%.
Turning to `O=C1C(=O)c2ccccc2C2=C1SCC1(CCN(C(=O)Oc3cccc(C(F)(F)F)c3)CC1)O2` [Compound 96, 3-(trifluoromethyl)phenyl 5,6-dioxo-5,6-dihydro-1′H-spiro[naphtho[1,2-b][1,4]oxathiine-2,4′-piperidine]-1′-carboxylate], the IC50 is over 100 µM in [1]; 31.7 µM in [2]; 20 µM in [3]; 36.3 µM in data set [4]; 20.5 µM in data set [5]; 26.7 µM in [6]. In addition, the IC50 in data set [7] came to 100 µM. Also, in data set [7], the “Fold Selectivity (NCM-460/DLD1)” value was 3.2. Further, the “E2F-1 Induction (HT-29)” value in the data set on E2F-1 is on record as “Yes”.

The term IC50 denotes the point on the concentration scale where inhibition reaches its midpoint.
